Experimental data from US20230002357A1, “7-PYRIMIDINE-2-YL-OXY-INDAZOLE DERIVATIVES AND THEIR USE AS HERBICIDES” (SYNGENTA CROP PROTECTION AG, priority 2019, published 2023).

Assays:
Type in all cases: in vivo
Conditions in all cases: 250 g/ha, evaluated after 13 days
Setaria faberi (SETFA) [1] = experiment: Pre-emergence Test, glasshouse, SETFA
Method: (§1) Seeds of a variety of test species are sown in standard soil in pots Amaranthus retoflexus (AMARE), Echinochloa crus-galli (ECHCG), Setaria faberi (SETFA)). After cultivation for one day (pre-emergence) or after 8 days cultivation (post-emergence) under controlled conditions in a glasshouse (at 24/16° C., day/night; 14 hours light; 65% humidity), the plants are sprayed with an aqueous spray solution derived from the formulation of the technical active ingredient in acetone/water (50:50) solution containing 0.5% Tween™ 20 (polyoxyethelyene sorbitan monolaurate, CAS RN 9005-64-5). Compounds are applied at 250 g/ha unless otherwise stated. The test plants are then grown in a glasshouse under controlled conditions in a glasshouse (at 24/16° C., day/night; 14 hours light; 65% humidity) and watered twice daily. After 13 days for pre- and post-emergence, the test is evaluated for the percentage damage caused to the plant. The biological activities are shown in the following table on a five-point scale (5=81-100%; 4=61-80%; 3=41-60%; 2=21-40%; 1=0-20%).

Setaria faberi (SETFA) [2] = experiment: Post-emergence Test, glasshouse, SETFA
Method: as §1

[3] = tested on: Amaranthus retoflexus (AMARE); experiment: Post-emergence Test, glasshouse, AMARE
Method: as §1

IPOHE [4] = experiment: Pre-emergence Test, glasshouse, IPOHE
Method: as §1

[5] = tested on: Echinochloa crus-galli (ECHCG); experiment: Pre-emergence Test, glasshouse, ECHCG
Method: as §1

[6] = tested on: Amaranthus retoflexus (AMARE); experiment: Pre-emergence Test, glasshouse, AMARE
Method: as §1

ABUTH [7] = experiment: Pre-emergence Test, glasshouse, ABUTH
Method: as §1

ABUTH [8] = experiment: Post-emergence Test, glasshouse, ABUTH
Method: as §1

IPOHE [9] = experiment: Post-emergence Test, glasshouse, IPOHE
Method: as §1

[10] = tested on: Echinochloa crus-galli (ECHCG); experiment: Post-emergence Test, glasshouse, ECHCG
Method: as §1

| SMILES | percentage damage caused to the plant, five-point scale, SETFA (Setaria faberi (SETFA) [1]) | percentage damage caused to the plant, five-point scale, SETFA (Setaria faberi (SETFA) [2]) | percentage damage caused to the plant, five-point scale, AMARE [3] | percentage damage caused to the plant, five-point scale, IPOHE (IPOHE [4]) | percentage damage caused to the plant, five-point scale, ECHCG [5] | percentage damage caused to the plant, five-point scale, AMARE [6] | percentage damage caused to the plant, five-point scale, ABUTH (ABUTH [7]) | percentage damage caused to the plant, five-point scale, ABUTH (ABUTH [8]) | percentage damage caused to the plant, five-point scale, IPOHE (IPOHE [9]) | percentage damage caused to the plant, five-point scale, ECHCG [10] |
| --- | --- | --- | --- | --- | --- | --- | --- | --- | --- | --- |
| FC(F)(F)CCCn1nc(Br)c2cccc(Oc3ncc(Cl)cn3)c21 [Compound 1.006, 3-bromo-7-(5-chloropyrimidin-2-yl)oxy-1-(4,4,4-trifluorobutyl)indazole] | 5 (5=81-100%) | 4 (4=61-80%) | 5 (5=81-100%) | 1 (1=0-20%) | 5 (5=81-100%) | 5 (5=81-100%) | 2 (2=21-40%) | 5 (5=81-100%) | 2 (2=21-40%) | 5 (5=81-100%) |
| FC(F)(F)CCCn1nc(Br)c2c(Br)ccc(Oc3ncc(Cl)cn3)c21 [Compound 1.015] | 1 (1=0-20%) | 2 (2=21-40%) | 4 (4=61-80%) | 1 (1=0-20%) | 1 (1=0-20%) | 2 (2=21-40%) | 1 (1=0-20%) | 4 (4=61-80%) | 1 (1=0-20%) | 2 (2=21-40%) |
| N#Cc1cc(Cl)cnc1Oc1cccc2c(Cl)nn(CCCC(F)(F)F)c12 [Compound 1.008] | 4 (4=61-80%) | 4 (4=61-80%) | 5 (5=81-100%) | 1 (1=0-20%) | 4 (4=61-80%) | 4 (4=61-80%) | 2 (2=21-40%) | 4 (4=61-80%) | 2 (2=21-40%) | 4 (4=61-80%) |
| Cc1cnc(Oc2cccc3c(Cl)nn(CCCC(F)(F)F)c23)nc1 [Compound 1.049] | 5 (5=81-100%) | 4 (4=61-80%) | 4 (4=61-80%) | 1 (1=0-20%) | 5 (5=81-100%) | 5 (5=81-100%) | 3 (3=41-60%) | 5 (5=81-100%) | 3 (3=41-60%) | 5 (5=81-100%) |
| C#CCn1nc(Cl)c2cccc(Oc3ncc(Cl)cn3)c21 [Compound 1.059] | 2 (2=21-40%) | 1 (1=0-20%) | 4 (4=61-80%) | 1 (1=0-20%) | 2 (2=21-40%) | 2 (2=21-40%) | 2 (2=21-40%) | 2 (2=21-40%) | 1 (1=0-20%) | 1 (1=0-20%) |
| Cc1cnc(Oc2cccc3c(C(F)(F)F)nn(CCCC(F)(F)F)c23)nc1 [Compound 1.070] | 4 (4=61-80%) | 3 (3=41-60%) | 3 (3=41-60%) | 1 (1=0-20%) | 4 (4=61-80%) | 5 (5=81-100%) | 3 (3=41-60%) | 5 (5=81-100%) | 3 (3=41-60%) | 4 (4=61-80%) |
